The source of these data is patent US20240335442A1 (Eurofarma Laboratórios S.A., priority 2021, published 2024).

Assay [1] deals with human sodium channel Nav 1.8 (Homo sapiens (Human), UniProt Q9Y5Y9). Nature of the assay: Automated whole-cell voltage-clamp (ScreenPatch 384P), Nav 1.8 sodium current, Protocol 2. The note with it: read-out: Nav1.8 IC50. It counts as cell-based. The method, then:
(§1) Biological assays were performed on Chinese hamster ovary (CHO) cells expressing the human sodium channels Nav 1.8 and Nav 1.7 stably.
(§2) The experimental voltage-clamp protocol using the whole cell configuration was established on the automated ScreenPatch® 384P platform (SP384PE, Nanion Technologies, Livingston, NJ) and recording of the results was performed with a Nanion 384-well Patch Clamp chip (NPC) (Nanion Technologies, Livingston, NJ).
(§3) Compounds of Formula (I), were diluted in eight concentrations in the extracellular solution composed of physiological saline, buffered with HEPES (mM): NaCl, 137; KCl, 4; CaCl2, 3.8; MgCl2, 1; HEPES, 10; Glucose, 10; pH 7.4. The […], 50; CsF, 90; MgCl2, 5; EGTA, 5; HEPES, 10; pH 7.2. The duration of exposure of each compound with the cells expressing Nav 1.7 or Nav 1.8 was at least five minutes and the assays were performed at room temperature.
(§4) The measurements of the sodium currents of Nav 1.8 and Nav 1.7 were obtained using the voltage protocols described below: • Protocol 1: A holding voltage of-90 mV was established followed by a voltage phase of 200 ms to-120 mV, followed by a voltage step of 10 mV for 1 second for Nav 1.8 or 0 mV for Nav 1.7, followed by a step of-100 mV for 20 ms, followed by a step of 20 ms for 10 mV for Nav 1.8 or 0 mV for Nav 1.7 (TP1A) before returning to the holding voltage of-90 mV. • Protocol 2: A holding voltage of-100 mV was established followed by an inactivation voltage step at −40 mV for 8 seconds, followed by a −100 mV step for 20 ms, followed by a 20 ms step for 10 mV for Nav 1.8 or 0 mV for Nav 1.7 (TP1A) before returning to the holding voltage of-100 mV.
(§5) Protocols were repeated at a frequency of 0.1 Hz (Protocol 1) or 0.05 Hz (Protocol 2) and current amplitude was quantified over the TP1A phase log. The variation in the peak amplitude of the current was evaluated according to the Formula described below, after exposure of the cells expressing the channels, at each concentration of the different compounds:
(§6) where ITP1A,basal, and ITP1A,molecule represent the entry peaks of sodium currents into TP1A prior to exposure to the compound and in the presence of the compound, respectively.
(§7) The decrease in peak current amplitude, after exposure of the cells to the compounds, was used to calculate the percent relative blocking of the channels relative to the positive control according to the Formula below: […]
(§8) where % V and % CP represent the averages of the values of current inhibition with a vehicle (DMSO) and positive controls, respectively. The sodium currents of the positive control were considered as 100%.
(§9) where [Test] represents the concentration of the evaluated molecule, IC50 is the concentration of the compound that generates half of the maximum inhibition, N is the Hill's coefficient and % Block′ is the percentage of the sodium channel current (Nav 1.8 and Nav 1.7) inhibited at each concentration of the evaluated molecule. Data were obtained by non linear least squares regression with XL fit for Excel (Microsoft, Redmond, WA).
(§10) Compounds were tested in at least one assay to obtain the IC50 value.

Assay [2] has as its target human sodium channel Nav 1.7 (Homo sapiens (Human), UniProt Q15858). As to the kind of experiment: Automated whole-cell voltage-clamp (ScreenPatch 384P), Nav 1.7 sodium current, Protocol 2. It counts as cell-based. The following applies: read-out: Nav1.7 IC50. The method, then:
as §1, §2, §3, §4, §5, §6, §7, §8, §9, §10

Chain of human sodium channel Nav 1.8 (Q9Y5Y9 whole entry): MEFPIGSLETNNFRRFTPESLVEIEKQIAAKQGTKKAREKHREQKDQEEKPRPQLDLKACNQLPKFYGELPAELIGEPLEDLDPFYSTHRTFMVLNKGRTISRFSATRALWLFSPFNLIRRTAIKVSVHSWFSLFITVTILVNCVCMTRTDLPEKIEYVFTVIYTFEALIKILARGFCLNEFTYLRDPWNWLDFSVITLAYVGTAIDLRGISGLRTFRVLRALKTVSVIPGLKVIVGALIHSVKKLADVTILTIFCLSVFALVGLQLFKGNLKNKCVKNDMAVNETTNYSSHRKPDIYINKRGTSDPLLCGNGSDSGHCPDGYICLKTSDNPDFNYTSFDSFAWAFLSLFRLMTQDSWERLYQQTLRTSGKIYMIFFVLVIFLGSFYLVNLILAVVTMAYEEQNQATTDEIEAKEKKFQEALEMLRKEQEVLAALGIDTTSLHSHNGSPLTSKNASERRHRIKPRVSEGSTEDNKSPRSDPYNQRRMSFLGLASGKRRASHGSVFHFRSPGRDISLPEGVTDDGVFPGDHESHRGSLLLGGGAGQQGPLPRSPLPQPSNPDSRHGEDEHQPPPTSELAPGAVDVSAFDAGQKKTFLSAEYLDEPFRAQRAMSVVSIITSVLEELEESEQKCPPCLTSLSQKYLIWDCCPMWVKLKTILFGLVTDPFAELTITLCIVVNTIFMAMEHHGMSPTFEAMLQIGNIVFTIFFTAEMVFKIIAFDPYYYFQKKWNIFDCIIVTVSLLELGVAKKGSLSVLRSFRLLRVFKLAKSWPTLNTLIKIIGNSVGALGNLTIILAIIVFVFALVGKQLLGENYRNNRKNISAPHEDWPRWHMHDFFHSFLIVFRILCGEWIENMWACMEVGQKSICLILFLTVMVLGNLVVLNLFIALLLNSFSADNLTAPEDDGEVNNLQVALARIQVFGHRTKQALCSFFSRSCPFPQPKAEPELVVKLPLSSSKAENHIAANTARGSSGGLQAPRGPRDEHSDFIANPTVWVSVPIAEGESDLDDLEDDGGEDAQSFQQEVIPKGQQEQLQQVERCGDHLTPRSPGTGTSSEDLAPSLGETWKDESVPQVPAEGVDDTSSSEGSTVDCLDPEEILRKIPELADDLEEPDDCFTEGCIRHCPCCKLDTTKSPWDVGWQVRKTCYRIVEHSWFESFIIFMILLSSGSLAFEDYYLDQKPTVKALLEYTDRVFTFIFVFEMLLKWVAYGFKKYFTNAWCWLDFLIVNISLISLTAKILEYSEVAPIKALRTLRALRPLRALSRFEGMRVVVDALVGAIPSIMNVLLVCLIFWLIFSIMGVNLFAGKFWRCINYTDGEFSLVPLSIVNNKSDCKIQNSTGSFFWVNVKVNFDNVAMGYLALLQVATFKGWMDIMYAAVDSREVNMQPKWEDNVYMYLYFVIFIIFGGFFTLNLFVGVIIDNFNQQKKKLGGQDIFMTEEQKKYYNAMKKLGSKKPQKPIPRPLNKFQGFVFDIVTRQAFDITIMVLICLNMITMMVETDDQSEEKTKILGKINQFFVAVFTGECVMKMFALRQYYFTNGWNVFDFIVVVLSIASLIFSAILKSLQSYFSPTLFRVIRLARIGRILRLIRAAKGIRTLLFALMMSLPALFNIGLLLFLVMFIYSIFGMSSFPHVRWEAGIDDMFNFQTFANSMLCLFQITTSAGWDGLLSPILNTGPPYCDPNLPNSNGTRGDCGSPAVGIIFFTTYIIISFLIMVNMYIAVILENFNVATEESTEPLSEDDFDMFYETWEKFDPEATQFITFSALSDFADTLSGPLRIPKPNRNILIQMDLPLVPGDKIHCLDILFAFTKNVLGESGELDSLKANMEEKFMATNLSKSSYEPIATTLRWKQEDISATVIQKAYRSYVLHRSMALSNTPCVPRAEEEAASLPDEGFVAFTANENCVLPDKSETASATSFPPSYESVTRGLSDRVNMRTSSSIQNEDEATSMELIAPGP
Chain of human sodium channel Nav 1.7 (Q15858 whole entry): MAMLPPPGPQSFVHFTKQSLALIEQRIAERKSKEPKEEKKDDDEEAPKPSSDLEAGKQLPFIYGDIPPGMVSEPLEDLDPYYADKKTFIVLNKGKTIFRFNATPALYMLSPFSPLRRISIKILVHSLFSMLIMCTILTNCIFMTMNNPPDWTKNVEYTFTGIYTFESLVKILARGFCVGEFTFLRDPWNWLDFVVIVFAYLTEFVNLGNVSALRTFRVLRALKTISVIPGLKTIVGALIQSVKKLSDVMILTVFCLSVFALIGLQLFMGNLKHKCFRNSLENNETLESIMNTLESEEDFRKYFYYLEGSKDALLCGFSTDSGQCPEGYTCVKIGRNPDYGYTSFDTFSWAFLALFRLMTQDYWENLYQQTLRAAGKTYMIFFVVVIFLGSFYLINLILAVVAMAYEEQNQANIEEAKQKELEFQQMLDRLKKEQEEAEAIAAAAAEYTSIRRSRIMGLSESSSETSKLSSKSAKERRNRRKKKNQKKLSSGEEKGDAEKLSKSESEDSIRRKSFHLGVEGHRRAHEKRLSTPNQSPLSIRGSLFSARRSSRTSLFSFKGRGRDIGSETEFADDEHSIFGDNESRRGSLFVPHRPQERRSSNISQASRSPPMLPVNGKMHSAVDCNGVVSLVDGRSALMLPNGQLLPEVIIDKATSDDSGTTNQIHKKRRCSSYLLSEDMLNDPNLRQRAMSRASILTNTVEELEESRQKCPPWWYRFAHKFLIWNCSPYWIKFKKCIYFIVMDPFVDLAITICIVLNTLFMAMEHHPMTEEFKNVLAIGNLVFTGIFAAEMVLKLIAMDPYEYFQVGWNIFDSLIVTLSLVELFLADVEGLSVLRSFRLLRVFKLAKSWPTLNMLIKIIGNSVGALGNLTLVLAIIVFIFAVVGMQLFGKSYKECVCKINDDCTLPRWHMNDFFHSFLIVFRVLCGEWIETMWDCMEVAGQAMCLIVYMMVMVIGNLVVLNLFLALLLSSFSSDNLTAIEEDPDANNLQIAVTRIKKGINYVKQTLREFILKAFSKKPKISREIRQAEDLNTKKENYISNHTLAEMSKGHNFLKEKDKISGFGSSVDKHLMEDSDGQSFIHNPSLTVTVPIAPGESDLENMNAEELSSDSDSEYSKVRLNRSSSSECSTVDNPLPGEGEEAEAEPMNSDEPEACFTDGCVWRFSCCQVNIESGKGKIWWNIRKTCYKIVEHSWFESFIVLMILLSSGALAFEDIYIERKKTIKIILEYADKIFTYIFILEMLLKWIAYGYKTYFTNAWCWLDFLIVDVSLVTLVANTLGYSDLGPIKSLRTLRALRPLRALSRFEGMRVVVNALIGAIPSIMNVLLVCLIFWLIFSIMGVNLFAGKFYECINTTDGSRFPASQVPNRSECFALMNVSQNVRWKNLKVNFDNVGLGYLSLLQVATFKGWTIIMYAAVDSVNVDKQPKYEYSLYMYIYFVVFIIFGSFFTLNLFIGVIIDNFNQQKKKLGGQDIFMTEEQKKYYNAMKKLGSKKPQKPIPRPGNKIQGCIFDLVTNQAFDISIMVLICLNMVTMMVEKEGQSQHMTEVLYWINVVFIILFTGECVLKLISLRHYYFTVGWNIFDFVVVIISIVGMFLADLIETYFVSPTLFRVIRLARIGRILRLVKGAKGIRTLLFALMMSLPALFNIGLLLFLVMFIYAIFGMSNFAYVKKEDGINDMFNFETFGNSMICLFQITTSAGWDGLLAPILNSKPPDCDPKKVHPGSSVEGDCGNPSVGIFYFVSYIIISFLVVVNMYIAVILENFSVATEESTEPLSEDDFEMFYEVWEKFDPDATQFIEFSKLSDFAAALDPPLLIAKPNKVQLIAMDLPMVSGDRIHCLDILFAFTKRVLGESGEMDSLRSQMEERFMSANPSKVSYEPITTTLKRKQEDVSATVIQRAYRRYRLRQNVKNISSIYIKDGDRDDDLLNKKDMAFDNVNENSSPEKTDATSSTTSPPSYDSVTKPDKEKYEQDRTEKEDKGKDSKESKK

By IC50 is commonly meant the midpoint of a concentration-inhibition curve. Take `CCCOc1cccc(/C=N/NC(=O)c2cncc(-c3ccc(OC)cc3)n2)c1` [Compound 40, (E)-6-(4-methoxyphenyl)-N′-(3-propoxybenzylidene)pyrazine-2-carbohydrazide]: the values for the IC50 in assay [1] and in assay [2] were 277 nM and 3360 nM, respectively.
In the case of `COc1ccc(-c2cncc(C(=O)N/N=C/c3cccc(OC(C)C)c3)n2)cc1` [Compound 41, (E)-N′-(3-isopropoxybenzylidene)-6-(4-methoxyphenyl)pyrazine-2-carbohydrazide], the 50% inhibitory concentration (IC50) in assay [1] was 94.5 nM; in assay [2] it was 3290 nM.
On the same counts, the results for `COc1ccc(-c2cncc(C(=O)N/N=C/c3ccccc3OC)n2)cc1` [Compound 42, (E)-N′-(2-methoxybenzylidene)-6-(4-methoxyphenyl)pyrazine-2-carbohydrazide] are 621 nM and 3900 nM.
For the compound `COc1ccc(-c2cncc(C(=O)N/N=C/c3ccccc3F)n2)cc1` [Compound 46, (E)-N′-(2-fluorobenzylidene)-6-(4-methoxyphenyl)pyrazine-2-carbohydrazide], the values for the concentration for half-maximal inhibition (IC50) in assay [1] and in assay [2] were 178 nM and 1990 nM, respectively.
Regarding `COc1ccc(-c2cncc(C(=O)N/N=C/c3ccccc3Cl)n2)cc1` [Compound 47, (E)-N′-(2-chlorobenzylidene)-6-(4-methoxyphenyl)pyrazine-2-carbohydrazide], the IC50 amounted to 82 nM in assay [1] and 1420 nM in assay [2].
On the same counts, the results for `COc1ccc(-c2cncc(C(=O)N/N=C/c3ccccc3Br)n2)cc1` [Compound 48, (E)-N′-(2-bromobenzylidene)-6-(4-methoxyphenyl)pyrazine-2-carbohydrazide] are 233 nM and 798 nM.
`COc1ccc(-c2cncc(C(=O)N/N=C/c3ccccc3C(F)(F)F)n2)cc1` [Compound 49, (E)-6-(4-methoxyphenyl)-N′-(2-(trifluoromethyl)benzylidene)pyrazine-2-carbohydrazide]: the concentration for half-maximal inhibition (IC50) is 158 nM in assay [1] and 1310 nM in assay [2].
Turning to `COc1ccc(-c2cncc(C(=O)N/N=C/c3ccccc3C)n2)cc1` [Compound 51, (E)-6-(4-methoxyphenyl)-N′-(2-methylbenzylidene)pyrazine-2-carbohydrazide], the 50% inhibitory concentration (IC50) came to 131 nM in assay [1] and 1380 nM in assay [2].
`COc1ccc(-c2cncc(C(=O)N/N=C/c3ccccc3C(C)(C)C)n2)cc1` [Compound 52, (E)-N′-(2-(tert-butyl)benzylidene)-6-(4-methoxyphenyl)pyrazine-2-carbohydrazide]: the IC50 is greater than 1000 nM in assay [1] and 3590 nM in assay [2].
On the same counts, the results for `COc1ccc(-c2cncc(C(=O)N/N=C/c3cccc(F)c3)n2)cc1` [Compound 53, (E)-N′-(3-fluorobnezylidene)-6-(4-methoxyphenyl)pyrazine-2-carbohydrazide] are 441 nM and greater than 10000 nM.
On to `COc1ccc(-c2cncc(C(=O)N/N=C/c3cccc(Cl)c3)n2)cc1` [Compound 54, (E)-N′-(3-chlorobenzylidene)-6-(4-methoxyphenyl)pyrazine-2-carbohydrazide], for which the IC50 in assay [1] came to 311 nM; in assay [2], 2910 nM.
On the same counts, the results for `COc1ccc(-c2cncc(C(=O)N/N=C/c3cccc(Br)c3)n2)cc1` [Compound 55, (E)-N′-(3-bromobenzylidene)-6-(4-methoxyphenyl)pyrazine-2-carbohydraizde] are 476 nM and 2190 nM.
On to `COc1ccc(-c2cncc(C(=O)N/N=C/c3cccc(C(F)(F)F)c3)n2)cc1` [Compound 56, (E)-6-(4-methoxyphenyl)-N′-(3-(trifluoromethyl)benzylidene)pyrazine-2-carbohydrazide], for which the half-maximal inhibitory concentration (IC50) worked out at 462 nM in assay [1] and 5480 nM in assay [2].
On the same counts, the results for `COc1ccc(-c2cncc(C(=O)N/N=C/c3cccc(C)c3)n2)cc1` [Compound 58, (E)-6-(4-methoxyphenyl)-N′-(3-methylbenzylidene)pyrazine-2-carbohydrazide] are 97 nM and 1050 nM.
On the same counts, the results for `COc1ccc(-c2cncc(C(=O)N/N=C/c3cccc(C(C)(C)C)c3)n2)cc1` [Compound 59, (E)-N′-(3-(tert-butyl)benzylidene)-6-(4-methoxyphenyl)pyrazine-2-carbohydrazide] are 492 nM and 1850 nM.
For the compound `COc1ccc(-c2cncc(C(=O)N/N=C/c3ccc(F)cc3)n2)cc1` [Compound 60, (E)-N′-(4-fluorobenzylidene)-6-(4-methoxyphenyl)pyrazine-2-carbohydrazide], the results for the IC50 in assay [1] and in assay [2] were 340 nM and 5190 nM, respectively.
On the same counts, the results for `COc1ccc(-c2cncc(C(=O)N/N=C/c3ccc(Cl)cc3)n2)cc1` [Compound 61, (E)-N′-(4-chlorobenzylidene)-6-(4-methoxyphenyl)pyrazine-2-carbohydrazide] are 614 nM and 7020 nM.
On the same counts, the results for `COc1ccc(-c2cncc(C(=O)N/N=C/c3ccc(Br)cc3)n2)cc1` [Compound 62, (E)-N′-(4-bromobenzylidene)-6-(4-methoxyphenyl)pyrazine-2-carbohydrazide] are 761 nM and greater than 10000 nM.
Take `COc1ccc(-c2cncc(C(=O)N/N=C/c3ccc(C(F)(F)F)cc3)n2)cc1` [Compound 63, (E)-6-(4-methoxyphenyl)-N′-(4-(trifluoromethyl)benzylidene)pyrazine-2-carbohydrazide]: the IC50 is greater than 1000 nM in assay [1] and greater than 10000 nM in assay [2].
On the same counts, the results for `COc1ccc(-c2cncc(C(=O)N/N=C/c3ccc(N(C)C)cc3)n2)cc1` [Compound 64] are 1000 nM and 8160 nM.
Take `COc1ccc(-c2cncc(C(=O)N/N=C/c3ccc(C)cc3)n2)cc1` [Compound 65, (E)-6-(4-methoxyphenyl)-N′-(4-methylbenzylidene)pyrazine-2-carbohydrazide]: the results for the IC50 in assay [1] and in assay [2] were 800 nM and 6600 nM, respectively.
As to `COc1ccc(-c2cncc(C(=O)N/N=C/c3ccc(C(C)(C)C)cc3)n2)cc1` [Compound 66, (E)-N′-(4-(tert-butyl)benzylidene)-6-(4-methoxyphenyl)pyrazine-2-carbohydrazide], the figures for the concentration for half-maximal inhibition (IC50) in assay [1] and in assay [2] were greater than 1000 nM and greater than 10000 nM, respectively.
On the same counts, the results for `CCOc1cc(/C=N/NC(=O)c2cncc(-c3ccc(OC)cc3)n2)cc(OCC)c1` [Compound 67, (E)-N′-(3,5-diethoxybenzylidene)-6-(4-methoxyphenyl)pyrazine-2-carbohydrazide] are 747 nM and 1930 nM.
`COc1ccc(-c2cncc(C(=O)N/N=C/c3cc(C(F)(F)F)cc(C(F)(F)F)c3)n2)cc1` [Compound 73, (E)-N′-(3,5-bis(trifluoromethyl)benzylidene)-6-(4-methoxyphenyl)pyrazine-2-carbohydrazide]: the IC50 was 777 nM in assay [1] and greater than 10000 nM in assay [2].
For `COc1ccc(-c2cncc(C(=O)N/N=C/c3cc(C(C)(C)C)cc(C(C)(C)C)c3)n2)cc1` [Compound 76, (E)-N′-(3,5-di-tert-butylbenzylidene)-6-(4-methoxyphenyl)pyrazine-2-carbohydrazide], the results for the IC50 in assay [1] and in assay [2] were greater than 1000 nM and greater than 10000 nM, respectively.
On the same counts, the results for `COc1ccc(-c2cncc(C(=O)N/N=C/c3cccnc3)n2)cc1` [Compound 77, (E)-6-(4-methoxyphenyl)-N′-(pyridin-3-ylmethylene)pyrazine-2-carbohydrazide] are greater than 1000 nM and greater than 10000 nM.
With `COc1ccc(-c2cncc(C(=O)N/N=C/c3ccc(OC)cc3OC)n2)cc1` [Compound 78, (E)-N′-(2,4-dimethoxybenzylidene)-6-(4-methoxyphenyl)pyrazine-2-carbohyrazide], the concentration for half-maximal inhibition (IC50) in assay [1] is 841 nM; in assay [2], 7150 nM.
Turning to `COc1ccc(-c2cncc(C(=O)N/N=C/c3c(OC)cccc3OC)n2)cc1` [Compound 79, (E)-N′-(2,6-dimethoxybenzylidene)-6-(4-methoxyphenyl)pyrazine-2-carbohydrazide], the IC50 in assay [1] was greater than 1000 nM; in assay [2], greater than 10000 nM.
